Source: patent US12129265B2, “Therapeutic agents and uses thereof” (Ankh Life Sciences Limited, priority 2020, dated 2024)

What was measured:
Test in all cases: CellTiter-Glo in vitro cell proliferation assay, Example 8
Assay type in all cases: cell-based, Human
[1] = test system: A2780 cells; conditions: A2780, Ovarian; read-out: Mean IC50
Outline: (§1)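 72 h continuous exposure, 37 °C, humidified; conc. 0.0075–100 μM (DMSO); CellTiter-Glo luminescence, 60 min RT incubation before read.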

[2] = test system: A2780CP cells; conditions: Ovarian, read-out: Mean IC50
Outline: as §1

[3] = test system: A498 cells; conditions: A498, RCC; read-out: Mean IC50
Outline: as §1

[4] = test system: AN3CA cells; conditions: Endometrial, read-out: Mean IC50
Outline: as §1

[5] = test system: ASPC-1 cells; conditions: ASPC-1, Pancreatic; read-out: Mean IC50
Outline: as §1

[6] = test system: BxPC-3 cells; conditions: BxPC-3, Pancreatic; read-out: Mean IC50
Outline: as §1

[7] = test system: DOHH-2 cells; conditions: DoHH-2, GCB-DLBCL; read-out: Mean IC50
Outline: as §1

[8] = test system: FaDu cells; conditions: H&N - SC, read-out: Mean IC50
Outline: as §1

[9] = test system: H1650 (EGFR mut) cells; conditions: NSCLC, read-out: Mean IC50
Outline: as §1

[10] = test system: H1975 (EGFR mut) cells; conditions: NSCLC, read-out: Mean IC50
Outline: as §1

[11] = test system: HCC70 cells; conditions: HCC70, TNBC; read-out: Mean IC50
Outline: as §1

[12] = test system: HEC-1a cells; conditions: Endometrial, read-out: Mean IC50
Outline: as §1

[13] = test system: JIM1 cells; conditions: JIM1, HMCL; read-out: Mean IC50
Outline: as §1

[14] = test system: KMM-1 cells; conditions: KMM-1, HMCL-A; read-out: Mean IC50
Outline: as §1

[15] = test system: KMS-34 cells; conditions: KMS-34, HMCL-B; read-out: Mean IC50
Outline: as §1

[16] = test system: L363 cells; conditions: L363, PCL/MM; read-out: Mean IC50
Outline: as §1

[17] = test system: MDA-MB-231 cells; conditions: MDA-MB-231, TNBC; read-out: Mean IC50
Outline: as §1

[18] = test system: MDA-MB-468 cells; conditions: MDA-MB-468, TNBC; read-out: Mean IC50
Outline: as §1

[19] = test system: MIA PaCa-2 cells; conditions: MIA PaCa-2, Pancreatic; read-out: Mean IC50
Outline: as §1

[20] = test system: MOLP-8 cells; conditions: MOLP-8, MM IgD; read-out: Mean IC50
Outline: as §1

[21] = test system: OCI-LY3 cells; conditions: OCI-LY3, ABC-DLBCL; read-out: Mean IC50
Outline: as §1

[22] = test system: SiHA cells; conditions: Cervical - SC, read-out: Mean IC50
Outline: as §1

[23] = test system: RPMI-8226 cells; conditions: RPMI-8226, HMM
Outline: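 After 24 h plating, cells exposed to compound in DMSO over 0.0075–100 µM for 72 h at 37 °C. Viability read by CellTiter-Glo luminescence after 60 min at room temperature, relative to DMSO controls.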

| SMILES | IC50 [1] [µM] | IC50 [2] [µM] | IC50 [3] [µM] | IC50 [4] [µM] | IC50 [5] [µM] | IC50 [6] [µM] | IC50 [7] [µM] | IC50 [8] [µM] | IC50 [9] [µM] | IC50 [10] [µM] | IC50 [11] [µM] | IC50 [12] [µM] | IC50 [13] [µM] | IC50 [14] [µM] | IC50 [15] [µM] | IC50 [16] [µM] | IC50 [17] [µM] | IC50 [18] [µM] | IC50 [19] [µM] | IC50 [20] [µM] | also measured |
| --- | --- | --- | --- | --- | --- | --- | --- | --- | --- | --- | --- | --- | --- | --- | --- | --- | --- | --- | --- | --- | --- |
| COc1ccc2c3c([nH]c2c1)C(CC(CC1=NCCc2c1[nH]c1cc(OC)ccc21)c1ccc(OC)c(OC)c1)=NCC3 [compound 4] | 11.5 | 10.8 | 12.7 | 5.1 | 11 | 6.05 | 3.17 | 7.69 | 13.6 | 14.1 | 11.6 | 16.3 | 6.89 | 6.32 | 4.75 | 6.38 | 12 | 6.27 | 4.37 | 5.03 | IC50 [21]: 5.57 µM; IC50 [22]: 17.1 µM; IC50 [23]: 4.09 µM |
| COc1ccc2c3c([nH]c2c1)C(CC(CC1=NCCc2c1[nH]c1cc(OC)ccc21)c1ccc(F)c(Oc2ccccc2)c1)=NCC3 [compound 19] | 22.1 | 27.5 | 89.5 | 22.8 | 45.5 | 36.2 | 10.2 | 44.4 | 56.8 | 55 | 50.9 | 45 | 42.9 | 25.6 | 31.2 | 36.8 | 41.8 | 48.9 | 36.6 | 9.81 | IC50 [21]: 20.6 µM; IC50 [22]: 75.9 µM; IC50 [23]: 10.6 µM |
| COc1ccc2c3c([nH]c2c1)C(CC(CC1=NCCc2c1[nH]c1cc(OC)ccc21)c1cc(O)c(OC)c(OC)c1)=NCC3 [compound 11] | 18.3 | 24.9 | 51.3 | 8.74 | 21.9 | 11.5 | 4.32 | 16.4 | 26.2 | 19.5 | 27.2 | 36.3 | 11.5 | 12.1 | 11.1 | 11.6 | 13.5 | 12.2 | 11.7 | 10.8 | IC50 [21]: 11.3 µM; IC50 [22]: 15.9 µM; IC50 [23]: 10.1 µM |
| COc1ccc2c3c([nH]c2c1)C(CC(CC1=NCCc2c1[nH]c1cc(OC)ccc21)c1ccc(OC)c(O)c1)=NCC3 [compound 7] | 33 | 33.7 | 29.3 | 11.5 | 40.9 | 12.3 | 6.48 | 13.7 | 64.2 | 60.8 | 23.4 | 71.1 | 14.4 | 19.9 | 11.1 | 11.8 | 31.7 | 11.2 | 16.2 | 11.7 | IC50 [21]: 11.4 µM; IC50 [22]: 48.1 µM; IC50 [23]: 11.8 µM |
| COc1ccc2c3c([nH]c2c1)C(CC(CC1=NCCc2c1[nH]c1cc(OC)ccc21)c1ccccc1OC)=NCC3 [compound 1] | 5.9 | 4.45 | 9.91 | 2.5 | 6.44 | 4.3 | 2.25 | 5.36 | 8.18 | 6.54 | 8.02 | 9.27 | 4.51 | 4.2 | 4.15 | 2.62 | 5.72 | 4.39 | 3.67 | 1.98 | IC50 [21]: 3.42 µM; IC50 [22]: 9.44 µM; IC50 [23]: 1.87 µM |
